In patent US11028078B2 (The Johns Hopkins University, priority 2011, dated 2021):

How the values were obtained:
Gli1 transcript = assay: Quantification of Gli1 transcript by TaqMan analysis in MB cells (Hh pathway); type: cell-based, mouse; conditions: Gli1 transcript fold induction score; MB cells exposed 24 h at the IC90 for MB proliferation
Excerpt: Inhibitors of the Hh pathway are known to inhibit MB cell proliferation. However, MB cell proliferation is also affected by drugs with targets other than Hh signaling.
Following drug exposure, cells were washed in PBS and pelleted by centrifugation at 300×g. Cell pellets were lysed in Trizol reagent (Invitrogen). Total RNA was separated and collected in the aqueous phase following centrifugation of lysate in the presence of chloroform. Total RNA was ethanol precipitated and purified over RNeasy Mini Kit (Qiagen) filter columns per manufacturer's recommendations. Transcript levels were quantified using gene-specific TaqMan primer/probe sets and the StepOne Plus Real-Time PCR system (Applied Biosystems) on cDNA reverse transcribed using the QuantiTect Reverse Transcription Kit (Qiagen) per manufacturers' recommendations. Results were quantified using StepOne Plus software v2.1 (Applied Biosystems) and were expressed as fold induction relative to control samples using the A ΔCt (2^−ΔΔCt) method with actin as an internal control. The primer/probe set (Applied Biosystems) for TaqMan PCR for mouse Gli-1 was Mm00494645_m1, and for mouse actin was Mm00607939_s1.

VEGFR2 = VEGFR2 glycosylation in HUVEC (Western blot scoring); type: cell-based, human; conditions: VEGFR2 hypoglycosylation score in HUVEC, 2 μM, 24 h
Description: VEGFR2 hypoglycosylation was scored either robust (++), intermediate (+), or absent (−) (FIG. 6).
HUVEC were seeded at 5×10^4 per well of a 6-well plate in 3 mL of media. After an overnight recovery, the media was replaced with 2 mL fresh media and the analogs were added from 200× stocks in DMSO. Following a 24-h incubation, the media was aspirated and 2×SDS sample buffer was added to the cells which were incubated on ice for 10 min and then boiled for 10 min. […] Following three washes in TBS-T, the membrane was incubated with anti-rabbit horseradish peroxidase conjugated IgG (GE Healthcare) (1:5000-1:10000 dilution) in 1% BSA in TBS-T. The membranes were washed three times in TBS-T, incubated for 1-5 minutes with ECL substrate (Immobilon Wester, Milipore) and visualized (Kodak Image Staion 440 CF).

[1] = tested on: MB cultures derived from Ptch−/+; p53−/− mice; assay: Medulloblastoma (MB) proliferation assay; type: cell-based, mouse; conditions: mouse medulloblastoma cultures, 96 h; relative to itraconazole
Excerpt: These cultures were derived from Ptch^−/+; p53^−/− mice that spontaneously develop medulloblastoma associated with ligand independent Hh pathway activation.
MB cultures were derived from mouse Ptch^−/+; p53^−/− MB grown as hind-flank allografts in nude mice (Harlan). Briefly, tumors were mechanically disrupted and made into single cell suspensions by two passages through a 70 μm nylon filter. Cells were pelleted by centrifugation and resuspended in PBS pH 7.4 twice. The cell suspension was then subjected to centrifugation at 1000×g for 25 min over a ficoll gradient. The viable cell layer formed at the ficoll boundary was then collected, suspended in PBS, and pelleted by centrifugation. The resulting pellet was then suspended and cultured as “neurospheres” in Neurobasal Media-A supplemented with retinoic acid deficient B-27 extract (NBMedia). Cells were cultured for three passages, with neurospheres disaggregated using Accumax (Innovative Cell Technologies) between passages.
Cultured MB neurospheres were disaggregated as described and 1×10^4 cells were seeded into wells of a 96-well assay plate in NBMedia and exposed to multiple analogue concentrations: Relative cell numbers following a 96-h incubation were quantified by CellTiter 96® AQueous One Solution Cell Proliferation Assay (Promega) per manufacturer's recommendations using a SpectraMax M2e spectrophotometer and SoftMax Pro software (Molecular Devices). Data was analyzed using Prism5 (GraphPad Software) and IC50 and IC90 values were determined from dose-response curves fitted to mean corrected absorbance normalized to control treatment.

HUVEC = HUVEC proliferation assay ([3H]thymidine incorporation); type: cell-based, human; conditions: HUVEC; for Proliferation (IC50/IC50 Itra): IC50 of analog relative to IC50 of itraconazole
Description: The activity of the analogs against HUVEC proliferation, an in vitro proxy for angiogenesis inhibition (Table 3) was analyzed. […]
Pooled HUVEC (Lonza) were grown in EGM-2 bullet kit media (Lonza) and used at passage eight or lower. The proliferation assays were conducted as previously described (Nacev, B.; Low, W. K.; Huang, Z.; Su, T.; Su, Z.; Alkuraya, H.; Kasuga, D.; Sun, W.; Trager, M.; Braun, M.; Fischer, G.; Zhang, K.; Liu, J. O., Acalcineurin-independent mechanism of angiogenesis inhibition by anon-immunosuppressive Cyclosporin Aanalog. J. Pharmacol. Exp. Ther. 2011, DOI:10.1124/jpet.111.18085).

Compound | Gli I Inhibition (IC90 Prolif. dose) (Gli1 transcript) | Glycosylation (2 μM dose) (VEGFR2) | MB Proliferation (IC50/IC50 Itra) [1] | Proliferation (IC50/IC50 Itra) (HUVEC) | Proliferation (EC50/IC50 Itra) (HUVEC; footnote g: EC50 of analog relative to IC50 of itraconazole)
CC(C)CCn1ncn(-c2ccc(N3CCN(c4ccc(OC[C@@H]5CO[C@@](Cn6cncn6)(c6ccc(Cl)cc6Cl)O5)cc4)CC3)cc2)c1=O (relative stereo) [Compound 7i, cis-(2S,4R)-4-[4-[4-[4-[[2-(2,4-Dichlorophenyl)-2-(1H-1,2,4-triazol-1-ylmethyl)-1,3-dioxolan-4-yl]methoxy]phenyl]-lpiperazinyl]phenyl]-2,4-dihydro-2-(3-methylbutyl)-3H-1,2,4-triazol-3-one] | ++ (≤0.15) | + | 0.41 | 1.42 | 
CCCCCn1ncn(-c2ccc(N3CCN(c4ccc(OCC5COC(Cn6cncn6)(c6ccc(Cl)cc6Cl)O5)cc4)CC3)cc2)c1=O [Compound 7g, cis-(2S,4R)-4-[4-[4-[4-[[2-(2,4-Dichlorophenyl)-2-(1H-1,2,4-triazol-1-ylmethyl)-1,3-dioxolan-4-yl]methoxy]phenyl]-lpiperazinyl]phenyl]-2,4-dihydro-2-pentyl-3H-1,2,4-triazol-3-one] | ++ (≤0.15) | − | 0.66 | 1.09 | 
CCC(CC)n1ncn(-c2ccc(N3CCN(c4ccc(OCC5COC(Cn6cncn6)(c6ccc(Cl)cc6Cl)O5)cc4)CC3)cc2)c1=O [Compound 7j, cis-(2S,4R)-4-[4-[4-[4-[[2-(2,4-Dichlorophenyl)-2-(1H-1,2,4-triazol-1-ylmethyl)-1,3-dioxolan-4-yl]methoxy]phenyl]-lpiperazinyl]phenyl]-2,4-dihydro-2-(1-ethylpropyl)-3H-1,2,4-triazol-3-one] | ++ (≤0.15) | + | 0.54 | 1.10 | 
O=c1n(-c2ccc(N3CCN(c4ccc(OCC5COC(Cn6cncn6)(c6ccc(Cl)cc6Cl)O5)cc4)CC3)cc2)cnn1C1CCCCC1 [Compound 7k, cis-(2S,4R)-4-[4-[4-[4-[[2-(2,4-Dichlorophenyl)-2-(1H-1,2,4-triazol-1-ylmethyl)-1.3-dioxolan-4-yl]methoxy]phenyl]-lpiperazinyl]phenyl]-2,4-dihydro-2-(1-cyclohexyl)-3H-1,2,4-triazol-3-one] | − (≥0.45) | ++ | 0.37 | 0.44 | 
O=c1n(-c2ccc(N3CCN(c4ccc(OCC5COC(Cn6cncn6)(c6ccc(Cl)cc6Cl)O5)cc4)CC3)cc2)cnn1CC1CCCC1 [Compound 7l, cis-(2S,4R)-4-[4-[4-[4-[[2-(2/l-Dichlorophenyl)-2-(1H-1,2,4-triazol-1-ylmethyl)-1,3-dioxolan-4-yl]methoxy]phenyl]-lpiperazinyl]phenyl]-2,4-dihydro-2-(1-cyclopentylmethyl)-3H-1,2,4-triazol-3-one] | + (0.16 to 0.44) | ++ | 0.50 | 0.50 | 
CCCCCCCCn1ncn(-c2ccc(N3CCN(c4ccc(OCC5COC(Cn6cncn6)(c6ccc(Cl)cc6Cl)O5)cc4)CC3)cc2)c1=O [Compound 7m, cis-(2S,4R)-4-[4-[4-[4-[[2-(2,4-Dichlorophenyl)-2-(1H-1,2,4-triazol-1-ylmethyl)-1,3-dioxolan-4-yl]methoxy]phenyl]-piperazinyl]phenyl]-2,4-dihydro-2-(n-octyl)-3H-1,2,4-triazol-3-one] | ++ (≤0.15) | − | 0.67 |  | 2.24^g
